{"source": "patent US20090004694A1", "about": "“Sequence of Thermotolerant L-Rhamnose Isomerase Gene and Use of the Same” (National University Corporation Kagawa University, priority 2004, published 2009)", "molecules": {"B1": {"name": "L-rhamnose isomerase produced by Pseudomonas stutzeri LL172: known L-rhamnose isomerase derived from Pseudomonas stutzeri LL172 (FERM BP-08593), amino acid sequence SEQ ID NO: 4 (protein, listed as Pseudomonas stutzeri)", "chain": "MAEFRIAQDVVARENDRRASALKEDYEALGANLARRGVDIEAVTAKVEKFFVAVPSWGVGTGGTRFARFPGTGEPRGIFDKLDDCAVIQQLTRATPNVSLHIPWDKADPKELKARGDALGLGFDAMNSNTFSDAPGQAHSYKYGSLSHTDAATRAQAVEHNLECIEIGKAIGSKALTVWIGDGSNFPGQSNFTRAFERYLSAMAEIYKGLPDDWKLFSEHKMYEPAFYSTVVQDWGTNYLIAQTLGPKAQCLVDLGHHAPNTNIEMIVARLIQFGKLGGFHFNDSKYGDDDLDAGAIEPYRLFLVFNELVDAEARGVKGFHPAHMIDQSHNVTDPIESLINSANEIRRAYAQALLVDRAALSGYQEDNDALMATETLKRAYRTDVEPILAEARRRTGGAVDPVATYRASGYRARVAAERPASVAGGGGII"}, "B2": {"name": "L-rhamnose isomerase derived from Bacillus pallidus: thermotolerant L-rhamnose isomerase derived from Bacillus pallidus strain 14a (FERM AP-20172), amino acid sequence SEQ ID NO: 2 (protein, listed as Bacillus pallidus)", "chain": "MVIKESFEIARQVYEKWGINIEEVLENLQQASISIHCWQGDDVKGFEADASELSGGIDVTGNYPGKARNAEELRQDLEKALSLIPGKHRVNLHAIYAETNGEKVERDQLEPKHFENWVNWAKKIGIGLDFNPTLFSHEKAADGLTLSHPDPGIREFWINHCIRSRKIGEYFGKELGTPCLTNIWIPDGYKDIPSDRLTPRKRLKESLDKIFSVEINEKYNLDAVESKLFGIGSESFVVGSHEFYLGYALQNNKIYLLDTGHFHPTETVSNKISSILLYSDRLALHVSRPVRWDSDHVVILDDELREIALEIVRNDALHKVLIGLDFFDASINRLAAWVIGTRNMIKALLYAMLMPHEYLKQLQEKGNFTERLAVMEEFKTYPFGAIWDYYCEKMNVPVREEWLKEIQKYEEEVLTKRQ"}}, "key": {"[1]": {"tested_on": "L-rhamnose isomerase derived from Bacillus pallidus strain 14a (IPOD FERM AP-20172)", "assay": "Substrate specificity (relative activity) of the purified enzyme, cysteine-carbazole method", "format": "biochemical", "details": "activity against L-rhamnose assumed to be 100%; 50° C., 10 minutes, glycine-NaOH buffer pH 9.0", "procedure": "(§1) The method for measuring the substrate specificity (relative activity (%)) will be described.\n(§2) A reaction solution having a composition of 50 μl of the purified enzyme solution, 50 μl of 0.05 M of each substrate sugar, 50 μl of 0.01 M manganese chloride and 0.05 M glycine-NaOH buffer (pH 9.0) was used. The reaction was carried out at a reaction temperature of 50° C. for 10 minutes. The produced ketose corresponding to the respective substrates was measured by the cysteine-carbazole method, and the activity that produces 1 μmol of the ketose per minute was measured for the respective substrates."}, "[2]": {"tested_on": "L-rhamnose isomerase produced by Pseudomonas stutzeri LL172 (IPOD FERM BP-08593)", "assay": "Substrate specificity (relative activity) of the purified enzyme, cysteine-carbazole method", "format": "biochemical", "details": "activity against L-rhamnose assumed to be 100%; 50° C., 10 minutes, glycine-NaOH buffer pH 9.0", "procedure": "as §1, §2"}, "[3]": {"assay": "Solubility of D-psicose and D-allose in water and alcohols", "format": "physicochemical", "excerpt": "The principle of the collection by separation will be briefly described. […] D-psicose has a solubility of about 10% in methanol and ethanol, however, D-allose is insoluble in either alcohol. The temperature has an influence on the solubility. The solubility of D-psicose in both alcohols is increased at a high temperature. Further, when the alcohol concentration is high, D-allose is likely to be crystallized. It is a separation technique utilizing the above physical properties. It is a production method of high-purity D-allose in which by allowing an alcohol (ethanol and/or ethanol) to act on, D-allose which is insoluble in the alcohol (ethanol and/or ethanol) is crystallized and the crystal of D-allose is separated."}, "[4]": {"molecular_target": "T1, L-rhamnose isomerase produced by E. coli (Escherichia coli, UniProt P32170)", "T1 sequence (P32170 1-419)": "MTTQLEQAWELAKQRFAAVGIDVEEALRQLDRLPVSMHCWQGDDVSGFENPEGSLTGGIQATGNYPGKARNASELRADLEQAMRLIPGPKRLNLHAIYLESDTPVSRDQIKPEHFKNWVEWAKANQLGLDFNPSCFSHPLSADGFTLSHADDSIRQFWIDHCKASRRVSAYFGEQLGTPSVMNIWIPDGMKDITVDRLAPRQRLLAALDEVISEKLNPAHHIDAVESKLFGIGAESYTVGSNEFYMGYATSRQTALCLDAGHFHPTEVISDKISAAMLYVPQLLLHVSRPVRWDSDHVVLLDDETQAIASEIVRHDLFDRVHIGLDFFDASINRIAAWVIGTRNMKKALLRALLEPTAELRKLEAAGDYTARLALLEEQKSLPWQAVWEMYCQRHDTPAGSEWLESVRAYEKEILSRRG", "details": "cited from earlier work"}, "[5]": {"tested_on": "L-rhamnose isomerase derived from Bacillus pallidus strain 14a", "assay": "Effect of metal ion on enzyme activity", "format": "biochemical", "details": "1 mM cobalt ion"}, "[6]": {"tested_on": "L-rhamnose isomerase produced by Pseudomonas stutzeri LL172", "details": "cited from earlier work; for effect of chelating agent on activity: coexisting during the measurement of the activity"}, "[7]": {"assay": "Optimal pH and working pH of L-rhamnose isomerase", "format": "biochemical", "details": "50° C., L-rhamnose as substrate, purified enzyme", "procedure": "The optimal pH of L-rhamnose isomerase derived from Bacillus pallidus was examined. With the use of the purified enzyme, a reaction was carried out at 50° C. using L-rhamnose as a substrate at each pH value.\nThe optimal pH of L-rhamnose isomerase derived from P. stutzeri was examined. […] With regard to the activity thereof, the optimal pH was present in a range of from pH 7 to around pH 9."}, "[8]": {"assay": "Optimal and working temperature of L-rhamnose isomerase", "format": "biochemical", "details": "reaction time of 10 minutes"}, "[9]": {"assay": "Temperature stability of L-rhamnose isomerase", "format": "physicochemical", "details": "heat treatment condition of 1 hour"}, "[10]": {"details": "known properties (Non-patent document 1 / Patent document 1); cited from earlier work"}, "[11]": {"details": "reaction time 10 minutes; cited from earlier work"}, "[12]": {"details": "cited from earlier work"}}, "note": "Several values for one entry are separate records, joined by “and”; a condition that tells them apart may be missing. Identical values can stand only once. Like-named read-outs stand apart in the source and are kept apart here.", "data": [{"molecule": "O=C[C@H](O)[C@H](O)[C@@H](O)[C@@H](O)CO", "note": "[L-mannose]", "values": [{"measurement": "Enzyme derived from B. Pallidus (relative activity %)", "setting": "[1]", "value": 11, "unit": "%"}, {"measurement": "Enzyme derived from P stutzeri (relative activity %)", "setting": "[2]", "value": 33.4, "unit": "%"}]}, {"molecule": "O=C[C@@H](O)[C@@H](O)[C@H](O)CO", "note": "[D-lyxose]", "values": [{"measurement": "Enzyme derived from B. Pallidus (relative activity %)", "setting": "[1]", "value": 0.14, "unit": "%"}, {"measurement": "Enzyme derived from P stutzeri (relative activity %)", "setting": "[2]", "value": 0.006, "unit": "%"}]}, {"molecule": "O=C[C@H](O)[C@H](O)[C@H](O)[C@H](O)CO", "note": "[D-allose]", "values": [{"measurement": "Enzyme derived from B. Pallidus (relative activity %)", "setting": "[1]", "value": "5.5% and 5.6%"}, {"measurement": "Enzyme derived from P stutzeri (relative activity %)", "setting": "[2]", "value": 7.2, "unit": "%"}, {"measurement": "solubility in methanol and ethanol", "setting": "[3]", "value": "insoluble"}, {"measurement": "solubility in water", "setting": "[3]", "value": "readily soluble"}, {"measurement": "activity between D-psicose and D-allose", "setting": "[4]", "value": "hardly exhibits an activity"}]}, {"molecule": "C[C@H](O)[C@H](O)[C@@H](O)[C@@H](O)C=O", "note": "[L-rhamnose]", "values": [{"measurement": "Enzyme derived from B. Pallidus (relative activity %)", "setting": "[1]", "value": 100, "unit": "%"}, {"measurement": "Enzyme derived from P stutzeri (relative activity %)", "setting": "[2]", "value": 100, "unit": "%"}]}, {"molecule": "[Co+2]", "note": "[cobalt ion]", "values": [{"measurement": "activity inhibited by metal ion", "setting": "[5]", "value": "About 30%"}, {"measurement": "activity inhibited by metal ion", "setting": "[6]; 1 mM cobalt ion", "value": "About 30%"}]}, {"molecule": "O=C(O)CN(CCN(CC(=O)O)CC(=O)O)CC(=O)O", "note": "[EDTA]", "values": [{"measurement": "effect of chelating agent on activity", "setting": "[6]", "value": "hardly inhibited"}]}, {"molecule": "O=C(CO)[C@H](O)[C@H](O)[C@H](O)CO", "note": "[D-psicose]", "values": [{"measurement": "solubility in methanol and ethanol", "setting": "[3]; methanol and ethanol", "value": "about 10%"}, {"measurement": "solubility in water", "setting": "[3]; water", "value": "readily soluble"}, {"measurement": "activity between D-psicose and D-allose", "setting": "[4]", "value": "hardly exhibits an activity"}]}, {"molecule": "O=C[C@H](O)[C@H](O)[C@@H](O)CO", "note": "[L-lyxose]", "values": [{"measurement": "Enzyme derived from B. Pallidus (relative activity %)", "setting": "[1]", "value": 23.9, "unit": "%"}, {"measurement": "Enzyme derived from P stutzeri (relative activity %)", "setting": "[2]", "value": "43.9% and 43.7%"}]}, {"molecule": "O=C(O)CN(CCOCCOCCN(CC(=O)O)CC(=O)O)CC(=O)O", "note": "[EGTA]", "values": [{"measurement": "effect of chelating agent on activity", "setting": "[6]", "value": "hardly inhibited"}]}, {"molecule": "B1", "values": [{"measurement": "pH at which the highest activity was exhibited", "setting": "[7]", "value": 9}, {"measurement": "optimal temperature (highest enzymatic activity)", "setting": "[8]", "value": 60, "unit": "°C"}, {"measurement": "temperature stability (stable up to)", "setting": "[9]", "value": 40, "unit": "°C"}, {"measurement": "optimal pH", "setting": "[10]", "value": 9.0}, {"measurement": "temperature of highest activity", "setting": "[11]", "value": 60, "unit": "°C"}, {"measurement": "remaining activity", "setting": "[12]; 50° C. for 10 minutes", "value": "≥ 90", "unit": "%"}, {"measurement": "temperature stability (stable at)", "setting": "[12]; 10 minutes", "value": 40, "unit": "°C"}]}, {"molecule": "B2", "values": [{"measurement": "pH at which the highest activity was exhibited", "setting": "[7]", "value": 6}, {"measurement": "optimal temperature (highest enzymatic activity)", "setting": "[8]", "value": 80, "unit": "°C"}, {"measurement": "optimal temperature higher compared with the L-rhamnose isomerase of LL172", "setting": "[8]", "value": 20, "unit": "°C"}, {"measurement": "optimal temperature higher compared with the L-rhamnose isomerase of LL172", "setting": "[8]; listed as thermotolerant L-rhamnose isomerase", "value": "about 20 °C"}, {"measurement": "stable temperature higher compared with the L-rhamnose isomerase of LL172", "setting": "[9]", "value": 10, "unit": "°C"}, {"measurement": "temperature stability (stable up to)", "setting": "[9]", "value": "up to 50 °C"}]}]}
